Test system: HIV
Assay: MT4 assay (anti-HIV activity)
Assay type: cell-based
Conditions: Human immunodeficiency virus 1, 96 h, antiviral HIV activity in HTLV-1 transformed cell line MT-4; luciferase read 96 hours later; 10 point dose response
Summary of the method: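 MT-4 cells infected with HIV, with inhibition readout by CellTiter-Glo luminescence at 96 h relative to no-compound control. Cytotoxicity measured in parallel under the same conditions. IC50 from a 10-point, 3-4-fold dilution series spanning >1000-fold, fitted with a four-parameter logistic equation.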

Row | SMILES | IC50
1 | Cc1ccc(-c2c(C)c3c(c(C)c2[C@H](OC(C)(C)C)C(=O)O)CCN(C2CCCC(C)(C)C2)C3)cc1 (stereo partly drawn) [Example 52, (2S)-2-(tert-butoxy)-2-(2-(3,3-dimethylcyclohexyl)-5,8-dimethyl-7-(p-tolyl)-1,2,3,4-tetrahydroisoquinolin-6-yl)acetic Acid] | 10 nM
2 | Cc1ccc(-c2c(C)c3c(c(C)c2[C@H](OC(C)(C)C)C(=O)O)CCN(C(=O)CN2CCCCC2)C3)cc1 [Example 53, (S)-2-(tert-butoxy)-2-(5,8-dimethyl-2-(2-(piperidin-1-yl)acetyl)-7-(p-tolyl)-1,2,3,4-tetrahydroisoquinolin-6-yl)acetic Acid] | 807 nM
3 | Cc1ccc(-c2c(C)c3c(c(C)c2[C@H](OC(C)(C)C)C(=O)O)CCN(CC(=O)N2CCCCC2)C3)cc1 [Example 54, (S)-2-(tert-butoxy)-2-(5,8-dimethyl-2-(2-oxo-2-(piperidin-1-yl)ethyl)-7-(p-tolyl)-1,2,3,4-tetrahydroisoquinolin-6-yl)acetic Acid] | 309 nM
4 | Cc1ccc(-c2c(C)c3c(c(C)c2[C@H](OC(C)(C)C)C(=O)O)CCN(Cc2ccccc2)C3)cc1 [Example 55, (S)-2-(2-benzyl-5,8-dimethyl-7-(p-tolyl)-1,2,3,4-tetrahydroisoquinolin-6-yl)-2-(tert-butoxy)acetic Acid] | 349 nM
5 | Cc1ccc(-c2c(C)c3c(c(C)c2[C@H](OC(C)(C)C)C(=O)O)CCN(C2CCC(F)(F)CC2)C3)cc1 [Example 56, (S)-2-(tert-butoxy)-2-(2-(4,4-difluorocyclohexyl)-5,8-dimethyl-7-(p-tolyl)-1,2,3,4-tetrahydroisoquinolin-6-yl)acetic Acid] | 14 nM
6 | Cc1ccc(-c2c(C)c3c(c(C)c2[C@H](OC(C)(C)C)C(=O)O)CCN(S(=O)(=O)c2cccc(F)c2)C3)cc1 [Example 57, (S)-2-(tert-butoxy)-2-(2-((3-fluorophenyl)sulfonyl)-5,8-dimethyl-7-(p-tolyl)-1,2,3,4-tetrahydroisoquinolin-6-yl)acetic Acid] | 292 nM
7 | Cc1ccc(-c2c(C)c3c(c(C)c2[C@H](OC(C)(C)C)C(=O)O)CCN(S(=O)(=O)CC2CCCCC2)C3)cc1 [Example 58, (S)-2-(tert-butoxy)-2-(2-((cyclohexylmethyl)sulfonyl)-5,8-dimethyl-7-(p-tolyl)-1,2,3,4-tetrahydroisoquinolin-6-yl)acetic Acid] | 284 nM
8 | Cc1ccc(-c2c(C)c3c(c(C)c2[C@H](OC(C)(C)C)C(=O)O)CCN(C2CCC4CCC2C4)C3)cc1 (stereo partly drawn) [Example 60, (2S)-2-(2-(bicyclo[3.2.1]octan-2-yl)-5,8-dimethyl-7-(p-tolyl)-1,2,3,4-tetrahydroisoquinolin-6-yl)-2-(tert-butoxy)acetic Acid] | 5 nM
9 | Cc1ccc(-c2c(C)c3c(c(C)c2[C@H](OC(C)(C)C)C(=O)O)CCN(C2CCC2)C3)cc1 [Example 61, (S)-2-(tert-butoxy)-2-(2-cyclobutyl-5,8-dimethyl-7-(p-tolyl)-1,2,3,4-tetrahydroisoquinolin-6-yl)acetic Acid] | 141 nM
10 | Cc1ccc(-c2c(C)c3c(c(C)c2[C@H](OC(C)(C)C)C(=O)O)CCN(S(=O)(=O)CC(C)(C)C)C3)cc1 [Example 62, (S)-2-(tert-butoxy)-2-(5,8-dimethyl-2-(neopentylsulfonyl)-7-(p-tolyl)-1,2,3,4-tetrahydroisoquinolin-6-yl)acetic Acid] | 11 nM
11 | Cc1ccc(-c2c(C)c3c(c(C)c2[C@H](OC(C)(C)C)C(=O)O)CCN(S(=O)(=O)NC2CCCCC2)C3)cc1 [Example 63, (S)-2-(tert-butoxy)-2-(2-(N-cyclohexylsulfamoyl)-5,8-dimethyl-7-(p-tolyl)-1,2,3,4-tetrahydroisoquinolin-6-yl)acetic Acid] | 119 nM
12 | COc1c(F)cccc1S(=O)(=O)N1CCc2c(C)c([C@H](OC(C)(C)C)C(=O)O)c(-c3ccc(C)cc3)c(C)c2C1 [Example 64, (S)-2-(tert-butoxy)-2-(2-((3-fluoro-2-methoxyphenyl)sulfonyl)-5,8-dimethyl-7-(p-tolyl)-1,2,3,4-tetrahydroisoquinolin-6-yl)acetic Acid] | 89 nM
13 | Cc1ccc(-c2c(C)c3c(c(C)c2[C@H](OC(C)(C)C)C(=O)O)CCN(S(=O)(=O)C2CCCC2)C3)cc1 [Example 65, (S)-2-(tert-butoxy)-2-(2-(cyclopentylsulfonyl)-5,8-dimethyl-7-(p-tolyl)-1,2,3,4-tetrahydroisoquinolin-6-yl)acetic Acid] | 12 nM
14 | Cc1ccc(-c2c(C)c3c(c(C)c2[C@H](OC(C)(C)C)C(=O)O)CCN(S(=O)(=O)C(C)C)C3)cc1 [Example 66, (S)-2-(tert-butoxy)-2-(2-(isopropylsulfonyl)-5,8-dimethyl-7-(p-tolyl)-1,2,3,4-tetrahydroisoquinolin-6-yl)acetic Acid] | 48 nM
15 | Cc1ccc(-c2c(C)c3c(c(C)c2[C@H](OC(C)(C)C)C(=O)O)CCN(S(=O)(=O)C2CCCCCC2)C3)cc1 [Example 68, (S)-2-(tert-butoxy)-2-(2-(cycloheptylsulfonyl)-5,8-dimethyl-7-(p-tolyl)-1,2,3,4-tetrahydroisoquinolin-6-yl)acetic Acid] | 50 nM
16 | Cc1ccc(-c2c(C)c3c(c(C)c2[C@H](OC(C)(C)C)C(=O)O)CCN(C2CCCCCCC2)C3)cc1 [Example 69, (S)-2-(tert-butoxy)-2-(2-cyclooctyl-5,8-dimethyl-7-(p-tolyl)-1,2,3,4-tetrahydroisoquinolin-6-yl)acetic Acid] | 6 nM
17 | Cc1ccc(-c2c(C)c3c(c(C)c2[C@H](OC(C)(C)C)C(=O)O)CCN(C(C)C2CCCCC2)C3)cc1 (stereo partly drawn) [Example 70, (2S)-2-(tert-butoxy)-2-(2-(1-cyclohexylethyl)-5,8-dimethyl-7-(p-tolyl)-1,2,3,4-tetrahydroisoquinolin-6-yl)acetic Acid] | 130 nM
18 | Cc1ccc(-c2c(C)c3c(c(C)c2[C@H](OC(C)(C)C)C(=O)O)CCN(C2CCC[C@@H](C)C2)C3)cc1 (stereo partly drawn) [Example 72, (2S)-2-(tert-butoxy)-2-(5,8-dimethyl-2-((3R)-3-methylcyclohexyl)-7-(p-tolyl)-1,2,3,4-tetrahydroisoquinolin-6-yl)acetic Acid] | 23 nM
19 | Cc1ccc(-c2c(C)c3c(c(C)c2[C@H](OC(C)(C)C)C(=O)O)CCN(C2CC[C@@H](C)C2)C3)cc1 (stereo partly drawn) [Example 73, (2S)-2-(tert-butoxy)-2-(5,8-dimethyl-2-((3R)-3-methylcyclopentyl)-7-(p-tolyl)-1,2,3,4-tetrahydroisoquinolin-6-yl)acetic Acid] | 42 nM
20 | Cc1ccc(-c2c(C)c3c(c(C)c2[C@H](OC(C)(C)C)C(=O)O)CCN(C2CC4CCC(C4)C2)C3)cc1 (stereo partly drawn) [Example 74, (2S)-2-(2-(bicyclo[3.2.1]octan-3-yl)-5,8-dimethyl-7-(p-tolyl)-1,2,3,4-tetrahydroisoquinolin-6-yl)-2-(tert-butoxy)acetic Acid] | 12 nM
21 | Cc1ccc(-c2c(C)c3c(c(C)c2[C@H](OC(C)(C)C)C(=O)O)CCN(C(=O)C2CCCCCC2)C3)cc1 [Example 75, (S)-2-(tert-butoxy)-2-(2-(cycloheptanecarbonyl)-5,8-dimethyl-7-(p-tolyl)-1,2,3,4-tetrahydroisoquinolin-6-yl)acetic Acid] | 51 nM
22 | Cc1ccc(-c2c(C)c3c(c(C)c2[C@H](OC(C)(C)C)C(=O)O)CCN(C(=O)C2(C)CCCCC2)C3)cc1 [Example 76, (S)-2-(tert-butoxy)-2-(5,8-dimethyl-2-(1-methylcyclohexanecarbonyl)-7-(p-tolyl)-1,2,3,4-tetrahydroisoquinolin-6-yl)acetic Acid] | 41 nM
23 | Cc1ccc(-c2c(C)c3c(c(C)c2[C@H](OC(C)(C)C)C(=O)O)CCN(C2CCc4ccccc4C2)C3)cc1 (stereo partly drawn) [Example 77, (2S)-2-(tert-butoxy)-2-(5,8-dimethyl-2-(1,2,3,4-tetrahydronaphthalen-2-yl)-7-(p-tolyl)-1,2,3,4-tetrahydroisoquinolin-6-yl)acetic Acid] | 40 nM
24 | Cc1ccc(-c2c(C)c3c(c(C)c2[C@H](OC(C)(C)C)C(=O)O)CCN(C(=O)C2CCc4ccccc4C2)C3)cc1 (stereo partly drawn) [Example 78, (2S)-2-(tert-butoxy)-2-(5,8-dimethyl-2-(1,2,3,4-tetrahydronaphthalene-2-carbonyl)-7-(p-tolyl)-1,2,3,4-tetrahydroisoquinolin-6-yl)acetic Acid] | 109 nM
25 | Cc1c(-c2c(C)c3c(c(C)c2[C@H](OC(C)(C)C)C(=O)O)CCN(C(=O)C2CCCCC2)C3)cc(F)c2c1CCCO2 [Example 79, (S)-2-(tert-Butoxy)-2-((R)-2-(cyclohexanecarbonyl)-7-(8-fluoro-5-methylchroman-6-yl)-5,8-dimethyl-1,2,3,4-tetrahydroisoquinolin-6-yl)acetic Acid] | 35 nM
26 | Cc1c(-c2c(C)c3c(c(C)c2[C@H](OC(C)(C)C)C(=O)O)CCN(S(=O)(=O)C2CCCCC2)C3)cc(F)c2c1CCCO2 [Example 80, (S)-2-(tert-Butoxy)-2-((R)-2-(cyclohexylsulfonyl)-7-(8-fluoro-5-methylchroman-6-yl)-5,8-dimethyl-1,2,3,4-tetrahydroisoquinolin-6-yl)acetic Acid] | 13 nM
27 | Cc1c(-c2c(C)c3c(c(C)c2[C@H](OC(C)(C)C)C(=O)O)CCN(C2CCC(C)(C)CC2)C3)cc(F)c2c1CCCO2 [Example 81, (S)-2-(tert-Butoxy)-2-((R)-2-(4,4-dimethylcyclohexyl)-7-(8-fluoro-5-methylchroman-6-yl)-5,8-dimethyl-1,2,3,4-tetrahydroisoquinolin-6-yl)acetic Acid] | 4 nM
28 | COc1c(F)cccc1C(=O)N1CCc2c(C)c([C@H](OC(C)(C)C)C(=O)O)c(-c3cc(F)c4c(c3C)CCCO4)c(C)c2C1 [Example 82, (S)-2-(tert-Butoxy)-2-((R)-2-(3-fluoro-2-methoxybenzoyl)-7-(8-fluoro-5-methylchroman-6-yl)-5,8-dimethyl-1,2,3,4-tetrahydroisoquinolin-6-yl)acetic Acid] | 20 nM
